Reference: patent US9596855B2, “Small molecule inhibitors of biofilm formation and the novel use of previously identified compounds for inhibition of biofilm formation and applications for drug therapy and medical device coating” (priority 2013, dated 2017)

Key:
V. cholerae [1] = test: image-based biofilm inhibition screening platform; assay type: cell-based
Description: In the present study, a 1,248-member prefractionated marine natural product library was evaluated for biofilm inhibitory activity using a recently-developed image-based screening platform. […] Prefraction 1671D is a semi-purified mixture that contains mixture of several individual compounds. Prefraction 1671D was therefore subjected to one-compound-one-well ‘peak library’ fractionation using the inventors' standard protocol that automatically separates the constituents of prefractions of interest based on HPLC retention times, and connects specific constituents to observed biological activities through secondary screening.
This activity was coupled with a striking biofilm macrocolony phenotype, providing strong justification for purification and full structural characterization of the active constituent. It was from 1671D that “compound 5” was isolated.

V. cholerae [2] = test: co-dosing of biofilm inhibitor with sub-MIC and sub-BIC antibiotics, image-based screen
tested strains = test: bactericidal activity against tested strains; assay type: cell-based; details: any of the tested strains
HeLa cells = test: mammalian cell cytotoxicity; assay type: cell-based; details: up to the highest tested concentration (250 μM)

C=C1Oc2cc(OC)cc(C(=O)OC)c2NC1=O [Compound 5]
IC50 (V. cholerae [1]; Vibrio cholerae, read-out: biofilm inhibitory activity (IC50)): 60.1 µM | biofilm phenotype (epifluorescence and confocal images) (V. cholerae [1]; on treatment with compound): micro-colonies initially become less organized and less tightly packed | biofilm-clearing efficacy (V. cholerae [2]; with sub-BIC concentrations of ceftazidime): improve | biofilm-clearing efficacy (V. cholerae [2]; with sub-BIC concentrations of ciprofloxacin): improve | bactericidal activity (tested strains): no bactericidal activity | mammalian cell cytotoxicity (HeLa cells): no mammalian cell cytotoxicity
